Data reported in article PMC12871931, “The importin‐alpha superfamily engages in ethylene signaling by shuttling [sequence] INSENSITIVE 2 from the endoplasmic reticulum to the nucleus” (The Febs Journal, 2025).

Tested on: EIN2C^479–1294ΔNLS
Test: In planta FLIM‐FRET, EIN2C^479–1294ΔNLS‐CER donor, IMPα3‐YFP acceptor
Assay type: cell-based, Arabidopsis thaliana
Conditions: co‐expression of IMPα3‐YFP acceptor, negative control, t‐test
Description: To further investigate the interaction between members of the IMPα superfamily and EIN2 in planta, we used in vivo fluorescence lifetime microscopy and Förster's resonance energy transfer (FLIM‐FRET). Accordingly, the C‐terminal part of EIN2 (EIN2C^479–1294) was fused to the fluorescent protein Cerulean (CER), serving as a donor, and the IMPα isoforms (IMPα1‐7) were fused to YELLOW FL[…] (YFP), serving as acceptors.
FRET efficiencies ranged between 2.8–4.6%. […] Given that nuclear import of the EIN2C^479–1294ΔNLS variant is abolished, we then tested whether this is due to an impaired interaction with IMPα proteins. […]
A modified version of a previously described procedure was used for the transient transformation of N. benthamiana. […] For co‐infiltration, bacteria solutions were mixed in equal quantities, and Agrobacterium strain GV3101:p19 expressing the p19 silencing inhibitor was added to each mix. […]
Fluorescence lifetime imaging was performed using a protocol described previously. Fluorescence lifetime was measured at a Zeiss LSM 780 confocal microscope (40× water immersion objective, Zeiss C‐PlanApo, NA 1.2). […] Photons were detected in both donor and acceptor channels simultaneously with Tau‐SPADs (PicoQuant, Berlin, Germany). […] Fluorescence lifetime images were acquired in the cytosol, ER, or nucleus in donor‐only samples and samples with IMPα1‐4 and IMPα7. […]

In the case of “IMPα3‐YFP: A. thaliana IMPα3 fused to YFP, FRET acceptor”, the “fluorescence lifetime of EIN2^479–1294ΔNLS‐CER” value is reported as “did not result in a reduction of the fluorescence lifetime”.
